According to patent US20060029623A1, “Invert emulsions comprising at least one active agent sensitive to water and cosmetic/dermatological applications thereof” (GALDERMA RESEARCH & DEVELOPMENT, S.N.C., priority 2003, published 2006):

Experiment: Maximum solubility of the vitamin D derivative in various excipients (excess active, stirring 12 h, filtration, HPLC assay)
Type: physicochemical
Method: In the table below are the solubility results for (4E,6E)-7-[3-(3,4-bishydroxymethylbenzyloxy)phenyl]-3-ethylnona4,6-dien-3-ol, a vitamin D analogue, in various excipients:
These maximum solubilities of (4E,6E)-7-[3-(3,4-bishydroxymethylbenzyloxy)phenyl]-3-ethylnona-4,6-dien-3-ol, a vitamin D analogue, were measured after stirring for 12 h with a magnetic stirrer bar, at room temperature, with an excess of active ingredient in the excipient to be analyzed. The suspension is then filtered (1.2 μm) and then the filtrate is assayed by HPLC.

For `CC/C(=C\C=C\C(O)(CC)CC)c1cccc(OCc2ccc(CO)c(CO)c2)c1` [Compound 1, (4E,6E)-7-[3-(3,4-bishydroxymethyl-benzyloxy)phenyl]-3-ethylnona-4,6-dien-3-ol], the “Solubility, Concentration in % (w/w)” value (in Cetiol SN, room temperature) was <0.1 % (w/w), the “Solubility, Concentration in % (w/w)” value (in Crodamol IPP, room temperature) was 0.2 % (w/w) and the “Solubility, Concentration in % (w/w)” value (in Ethanol Rectapur, room temperature) was 23.3 % (w/w). For the same molecule, the “Solubility, Concentration in % (w/w)” value (in Eutanol G, room temperature) was 0.5 % (w/w), the “Solubility, Concentration in % (w/w)” value (in Glycerine, room temperature) was <0.05 % (w/w) and the “Solubility, Concentration in % (w/w)” value (in Marcol 172, room temperature) was <0.05 % (w/w). The “Solubility, Concentration in % (w/w)” value (in Miglyol 812, room temperature) was 0.4 % (w/w), the “Solubility, Concentration in % (w/w)” value (in PEG 400, room temperature) was 17.8 % (w/w) and the “Solubility, Concentration in % (w/w)” value (in Primol 352, room temperature) was <0.05 % (w/w). For the same molecule, the “Solubility, Concentration in % (w/w)” value (in Propylene glycol, room temperature) was 6.7 % (w/w), the “Solubility, Concentration in % (w/w)” value (in Silicone DC 200, room temperature) was <0.05 % (w/w) and the “Solubility, Concentration in % (w/w)” value (in Tegosoft TN, room temperature) was 0.3 % (w/w). The “Solubility, Concentration in % (w/w)” value (in Transcutol, room temperature) was 27.0 % (w/w), the “Solubility, Concentration in % (w/w)” value (solution pH 4, room temperature) was <0.05 % (w/w) and the “Solubility, Concentration in % (w/w)” value (solution pH 7, room temperature) was <0.05 % (w/w).
